US20200363399A1, “SYSTEM AND METHOD FOR DETERMINING TUMOR INVASIVENESS” (University of Southern California, priority 2012, published 2020)

Tested on: MDA-MB-231 cells
Assay: Effect of Taxol on HFFU-induced Ca2+ elevations (cell response index, CRI), live-cell calcium fluorescence imaging
Assay type: cell-based, human
Conditions: for normalized CRI (cell response index): 24 h treatment, HFFU stimulation, n=10, normalized to 0 nM = 1.0
Description: In order to perform live-cell fluorescence imaging of target cells stimulated by HFFU, a HFFU stimulation system was added to an inverted epifluorescence microscope (Olympus 1X70). In order to generate the highly focused ultrasound beam for single cell stimulation, a 200-MHz press-focused LiNbO3 transducer (fc: 200 MHz and bandwidth: 29%) was used. The transducer was constructed with conventional transducer fabrication procedures (Lam et al., 2013). The focal length of the transducer was 1.3 mm and the f-number (F#) was 1.6. The measured beam width of the highly focused ultrasound beam was 17 μm, which was close to the predicted value of 12 μm (=focal length×wavelength) and approximately the size of a breast cancer cell. In order to generate the 200-MHz ultrasound beam, 200-MHz sinusoidal bursts from a function generator (Stanford Research Systems, Sunnyvale, Calif.) fed into a 50-dB power amplifier (525LA, ENI, USA) were used to drive the transducer. The resultant peak-to-peak (Vpp) voltages of the bursts were adjusted to 4, 8, 16, and 32 V. The duty factor was tuned to 1%, and the pulse repetition frequency (PRF) was 1 kHz.
Live-cell fluorescence imaging was carried out on the epifluorescence microscope to monitor the cytoplasmic Ca^2+ elevations elicited by HFFU in individual MDA-MB-231, MCF-7, SKBR3, and BT-474 cells labeled with Fluo-4 AM. Light from a mercury lamp was delivered to the cells for excitation after passing through an electronic shutter, an excitation bandpass filter (488±20 nm), a dichroic mirror (cut-off wavelength: 500 nm), and a 20×objective. Fluorescence emitted from the cells was then collected by the same objective and recorded using a high-sensitivity CCD camera (ORCA-Flash2.8, Hamamatsu, Japan) after passing through an emission bandpass filter (530±20 nm).
Fluo-4 AM was used for live-cell calcium fluorescence imaging. 10^5 cells were plated on 35 mm Petri dishes and incubated in the complete medium at 37° C. for 36 h before […] Fluo-4 AM solution, diluted with the external buffer solution, was added to the dishes. After the cells were incubated at room temperature for 30 min, the cells were thoroughly washed with external buffer solution and then time-lapse fluorescence imaging was initiated after the target cells were positioned at the beam focus. Fluorescence images were acquired at 1 Hz for t=300 s (exposure time: 300 ms), as the HFFU was switched on and off at t=50 s and t=200 s, respectively.
The program was written to obtain the mean normalized maximum calcium elevation value and a cell responding ratio from segmented images of target cells, semi-automatically. A cell responding ratio=the number of cells responding to HFFU/the number of total cells subjected to HFFU. More specifically, after fluorescence images of cells acquired at different time-points (0-300 s, step: 1 s) were averaged, the target cell receiving HFFU in the averaged image was selected and segmented by Otsu's method (Otsu, 1979), followed by the calculation of mean fluorescence intensities in the segmented regions of each image obtained at the indicated time-points. Temporal changes of the mean fluorescence in the target cell were then analyzed to determine whether calcium elevations were elicited by HFFU in the cell. The calcium elevation was here measured as the increase in the fluorescence intensity. […]

CC(=O)O[C@H]1C(=O)[C@@]2(C)[C@H]([C@H](OC(=O)c3ccccc3)[C@]3(O)C[C@H](OC(=O)[C@H](O)[C@@H](NC(=O)c4ccccc4)c4ccccc4)C(C)=C1C3(C)C)[C@]1(OC(C)=O)CO[C@@H]1C[C@@H]2O [Taxol] was tested, and the “reduction of the CRI relative to the untreated cells” value (1 nM Taxol) was −50%, the “normalized CRI (cell response index)” value (1 nM Taxol) was 0.52 and the “normalized CRI (cell response index)” value (10 nM Taxol) was 0.29. The “CRI remaining (reduced to)” value (100 nM Taxol) was 0% and the “normalized CRI (cell response index)” value (100 nM Taxol) was 0.
